Test systems include Trichoderma viride; Aspergillus fumigatus; Saccharomyces cerevisiae; Fusarium oxysporum; Staphylococcus aureus; Fusarium culmorum; Pseudomonas aeruginosa; Bacillus cereus; Shigella dysenteriae; Bacillus pumilus; Serratia rubidaea X01; Klebsiella pneumoniae; Candida krusei ATCC 6258; Salmonella typhimurium; Escherichia coli ML-35; Bacillus subtilis; Escherichia coli.
Common to all, as to test: ≥ marks a high value that may be exact or a test limit, other limits are often not marked, values filed in µg/mL are converted to µM
In test [1] the test system is Trichophyton mentagrophytes.
Test [2] relates to Candida albicans ATCC 2002.
For test [3], the system named is Staphylococcus aureus ATCC 2592.
Test [4] concerns Escherichia coli ATCC 25922.
Test [5] has as its system Acinetobacter calcoaceticus.
The subject of test [6] is Staphylococcus carnosus KHS.
For test [7], the system named is Enterococcus faecalis 981.
Test [8] deals with Psychrobacter faecalis X29.
Test [9] concerns Staphylococcus aureus ATCC 25923.
Test [10] relates to Rhodococcus rhodochrous X15.
Test [11] concerns Bacillus licheniformis X39.
In test [12] the test system is Candida tropicalis ATCC 750.
Test [13] has as its system Klebsiella pneumoniae ATCC 700603.
For test [14], the system named is Candida parapsilosis ATCC 22019.
Test [15] concerns Pseudomonas aeruginosa ATCC 15422.
Test [16] concerns Staphylococcus epidermidis ATCC 12228.
Test [17] concerns Staphylococcus aureus ATCC 29213.
Test [18] relates to Candida albicans ATCC 14053.
Test [19] has as its system Cronobacter sakazakii ATCC 29544.
Test [20] deals with Pseudomonas aeruginosa ATCC 27853.
For test [21], the system named is Bacillus subtilis ATCC 23857.
In test [22] the test system is Bacillus subtilis CCT 2576.
Test [23] concerns Staphylococcus aureus ATCC 6538.
Test [24] concerns Candida glabrata ATCC 2001.
Test [25] deals with Staphylococcus epidermidis.

The structures appear in SMILES notation. In brackets after ≈: the same amount, converted by molar mass. Several values for one entry are separate records, joined by “and”; a condition that tells them apart may be missing. Equal values may be shown once.

A word on the MIC: it is the lowest concentration that inhibits growth of the organism.

For `CC[C@H](C)[C@@H]1NC(=O)[C@@H]2CSSC[C@@H](C(=O)N[C@@H](CCCN=C(N)N)C(=O)N[C@@H](CCCN=C(N)N)C(=O)O)NC(=O)[C@H]([C@@H](C)O)NC(=O)[C@@H]3CSSC[C@H](NC(=O)[C@H](C)NC(=O)[C@H](C)NC(=O)[C@H](Cc4cnc[nH]4)NC(=O)CNC(=O)[C@H](C(C)C)NC(=O)CNC(=O)[C@H](Cc4ccccc4)NC(=O)[C@H](C)NC(=O)[C@H](CO)NC(=O)[C@H](CC(C)C)NC(=O)[C@H](CC(C)C)NC(=O)[C@H](CC(=O)O)NC(=O)[C@@H](NC(=O)[C@@H](NC(=O)[C@H](C)N)[C@@H](C)O)CSSC[C@H](NC(=O)[C@H](Cc4ccc(O)cc4)NC(=O)CNC(=O)CNC(=O)[C@H](CCCN=C(N)N)NC(=O)[C@H](Cc4ccc(O)cc4)NC(=O)CNC(=O)[C@H](Cc4cnc[nH]4)NC(=O)CNC1=O)C(=O)N[C@@H](CC(N)=O)C(=O)N[C@@H](CO)C(=O)N[C@@H](CCCCN)C(=O)N[C@@H](C)C(=O)N[C@@H](C(C)C)C(=O)N3)C(=O)N[C@@H](C)C(=O)N[C@@H](C)C(=O)N[C@@H](Cc1cnc[nH]1)C(=O)N2` [ATCDLLSAFGVGHAACAAHCIGHGYRGGYCNSKAVCTCRR], the MIC in the test with Trichoderma viride was 4.42 µM (≈ 18.1 µg/mL); in the test on Aspergillus fumigatus, 17.7 µM (≈ 72.4 µg/mL); with Saccharomyces cerevisiae, at least 35.4 µM; in test [1], at least 35.4 µM; against Fusarium oxysporum, 4.42 µM (≈ 18.1 µg/mL); with Staphylococcus aureus, 1.1 µM (≈ 4.52 µg/mL). The MIC in the test on Fusarium culmorum stood at 2.21 µM (≈ 9.04 µg/mL).

`CC[C@H](C)[C@H](NC(=O)[C@@H]1CCCN1C(=O)[C@H](Cc1ccccc1)NC(=O)[C@@H](N)Cc1ccccc1)C(=O)N[C@H](C(=O)NCC(=O)N[C@@H](CCCCN)C(=O)N[C@@H](CC(C)C)C(=O)N[C@@H](CC(C)C)C(=O)N[C@@H](Cc1ccccc1)C(=O)NCC(=O)N[C@@H](CC(C)C)C(=O)N[C@@H](CO)C(=O)NCC(=O)N[C@@H](CC(C)C)C(=O)N[C@@H](CC(C)C)C(N)=O)C(C)C` [FFPIVGKLLFGLSGLL]: the MIC in the test on Pseudomonas aeruginosa is 2.91 µM (≈ 5 µg/mL); in [2] it was 0.726 µM (≈ 1.25 µg/mL); against Bacillus cereus it was 8.72 µM (≈ 15 µg/mL); in test [3], 0.726 µM (≈ 1.25 µg/mL); against Shigella dysenteriae, 2.91 µM (≈ 5 µg/mL); in [4], 0.726 µM (≈ 1.25 µg/mL). For the same compound, the results for the MIC (in the test with Bacillus pumilus; in test [5]) were 2.91 µM (≈ 5 µg/mL) and 8.72 µM (≈ 15 µg/mL), respectively.

In the case of `CC(C)C[C@H](NC(=O)[C@H](CC(C)C)NC(=O)CNC(=O)[C@H](CCCCN)NC(=O)[C@H](CC(C)C)NC(=O)[C@H](CC(C)C)NC(=O)[C@H](CC(N)=O)NC(=O)CNC(=O)[C@@H](NC(=O)[C@H](Cc1ccccc1)NC(=O)[C@@H]1CCCN1C(=O)[C@H](CC(C)C)NC(=O)[C@@H](N)Cc1ccccc1)C(C)C)C(N)=O` [FLPFVGNLLKGLL], the MIC in test [6] was 19 µM (≈ 27.2 µg/mL); in test [7], 19 µM (≈ 27.2 µg/mL); in test [8], at least 75 µM; in test [9], 9 µM (≈ 12.9 µg/mL); in [10] it was 9 µM (≈ 12.9 µg/mL); with Serratia rubidaea X01 it was at least 75 µM. The same compound yielded an MIC in [11] of 19 µM (≈ 27.2 µg/mL).

For the compound `CC[C@H](C)[C@H](N)C(=O)N[C@@H](CC(=O)O)C(=O)N[C@@H](Cc1c[nH]c2ccccc12)C(=O)N[C@@H](CCCCN)C(=O)N[C@@H](CCCCN)C(=O)N[C@@H](CC(C)C)C(=O)N[C@@H](CC(C)C)C(=O)N[C@@H](CC(=O)O)C(=O)N[C@@H](C)C(=O)N[C@@H](C)C(=O)N[C@@H](CCCCN)C(=O)N[C@@H](CCC(N)=O)C(=O)N[C@H](C(=O)N[C@@H](CC(C)C)C(N)=O)[C@@H](C)CC` [IDWKKLLDAAKQIL], the MIC was over 60.4 µM with Pseudomonas aeruginosa; 22.7 µM (≈ 37.5 µg/mL) in the test with Klebsiella pneumoniae; 8 µM (≈ 13.2 µg/mL) in [12]; 64 µM (≈ 106 µg/mL) in test [13]; at least 64 µM in [14]; 4.83 µM (≈ 8 µg/mL) in [15]. For the same compound, the MIC was 32 µM and > 16 µM in test [16]; 32 µM (≈ 52.9 µg/mL) in [17]; 8 µM (≈ 13.2 µg/mL) in [18]; at least 64 µM in [19]; 8 µM (≈ 13.2 µg/mL) in the test on Candida krusei ATCC 6258; 128 µM (≈ 212 µg/mL) in test [20]. The MIC was at least 60.4 µM in the test with Salmonella typhimurium; 8 µM and 4 µM in [21]; at least 32 µM with Escherichia coli ML-35; 11.4 µM (≈ 18.8 µg/mL) in the test with Staphylococcus aureus; at least 45.3 µM in the test with Shigella dysenteriae; 2.42 µM (≈ 4 µg/mL) in [22]. Also, the MIC in test [23] is 9.06 µM (≈ 15 µg/mL); against Bacillus subtilis it was 7.55 µM (≈ 12.5 µg/mL); in the test on Escherichia coli it was 45.3 µM (≈ 75 µg/mL); in [24] it was 8 µM (≈ 13.2 µg/mL); in [25], at least 60.4 µM.
